In US7897582B2, “Oligonucleotide compositions and methods for the modulation of the expression of B7 protein” (Isis Pharmaceuticals, Inc., priority 2003, dated 2011):
Strand notation (5' to 3'): a small letter for the sugar, then the base; units joined by * are phosphorothioate-linked, units joined directly phosphodiester-linked; [ ] holds rarer units or linkages, { } end groups; capitals alone tell only the bases. e = 2'-O-(2-methoxyethyl) (MOE); [5mC] = 5-methylcytosine; d = 2'-deoxy (DNA)

Tests used:
Type in all cases: cell-based
Mouse B7-2 mRNA = Mouse B7-2 mRNA expression, screened as in Example 4; set-up: % mRNA INHIBITION: concentration or dose not given beside the values; details: for % mRNA INHIBITION: screened as in Example 4; for % mRNA EXPRESSION: screened as in Example 4, basal = 100.0%
Description: For ribonuclease protection assays, cells were harvested 18 hours after completion of oligonucleotide treatment using a Totally RNA™ kit (Ambion, Austin, Tex.). The probes for the assay were generated from plasmids pcB7-2 (linearized by digestion with Bgl II) and pTRI-b-actin (Ambion Inc., Austin, Tex.). In vitro transcription of the linearized plasmid from the SP6 promoter was performed in the presence of α-^32P-UTP (800 Ci/mmole) yielding an antisense RNA complementary to the 3′ end of B7-2 (position 1044-1391). The probe was gel-purified after treatment with DNase I to remove DNA template. Ribonuclease protection assays were carried out using an RPA II™ kit (Ambion) according to the manufacturer's directions. Total RNA (5 μg) was hybridized overnight, at 42° C., with 10^5 cpm of the B7-2 probe or a control beta-actin probe. The hybridization reaction was then treated, at 37° C. for 30 minutes, with 0.4 units of RNase A and 2 units of RNase T1. Protected RNA was precipitated, resuspended in 10 μL of gel loading buffer and electrophoresed on a 6% acrylamide gel with 50% w/v urea at 20 W. The gel was then exposed and the lanes quantitated using a PhosphorImager (Molecular Dynamics, Sunnyvale, Calif.) essentially according to the manufacturer's instructions.
Oligonucleotides were screened as described in Example 4.

Mouse B7-1 mRNA = Mouse B7-1 mRNA expression, screened as in Example 4; set-up: % mRNA INHIBITION: concentration or dose not given beside the values; details: Table 10
Human B7-1 mRNA = Human B7-1 mRNA expression in COS-7 cells, screened as in Example 4
human B7-1 = assay: Cell surface expression of B7-1 in pcB7-1-transfected COS-7 cells by flow cytometry; details: for % Surface Inhibition / % Surface Expression: COS-7 cells, B7-1 cell surface; for % Surface Expression: basal = 100%
Description: The ability of oligonucleotides to inhibit B7-1 expression was evaluated by measuring the cell surface expression of B7-1 in transfected COS-7 cells by flow cytometry.
A T-175 flask was seeded at 75% confluency with COS-7 cells (ATCC accession No. CRL 1651). The plasmid pcB7-1 was introduced into cells by standard calcium phosphate transfection. Following a 4 hour transfection, the cells were trypsinized and seeded in 12-well dishes at 80% confluency. The cells were allowed to adhere to the plastic for 1 hour and were then washed with phosphate-buffered saline (PBS). OptiMEM™ (GIBCO-BRL, Gaithersburg, Md.) medium was added along with 15 μg/mL of Lipofectin™ (GIBCO-BRL, Gaithersburg, Md.) and oligonucleotide at the indicated concentrations. After four additional hours, the cells were washed with phosphate buffered saline (PBS) and incubated with fresh oligonucleotide at the same concentration in DMEM (Dulbecco et al., Virol., 1959, 8, 396; Smith et al., Virol., 1960, 12, 185) with 10% fetal calf sera (FCS).
In order to monitor the effects of oligonucleotides on cell surface expression of B7-1, treated COS-7 cells were harvested by brief trypsinization 24-48 hours after oligonucleotide treatment. The cells were washed with PBS, then resuspended in 100 μL of staining buffer (PBS, 0.2% BSA, 0.1% azide) with 5 μL conjugated anti-B7-1-antibody (i.e., anti-hCD80-FITC, Ancell, Bayport, Minn.; FITC: fluorescein isothiocyanate). The cells were stained for 30 minutes at 4° C., washed with PBS, resuspended in 300 μL containing 0.5% paraformaldehyde. Cells were harvested and the fluorescence profiles were determined using a flow cytometer.
B7 antisense oligonucleotides were tested for their effect on cell surface expression of both B7-1 and B7-2. Cell surface expression was measured as described in Example 1. Experiments were done for both human B7 and mouse B7.
The oligonucleotides were screened as described in Example 2 except that the concentration of oligonucleotide was varied as shown in Table 18.

human B7-2 = assay: Cell surface expression of B7-2 in transfected COS-7 cells by flow cytometry; details: human B7 cell surface expression; Table 16
How it was run: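 COS-7 cells transfected with B7-2 plasmid (calcium phosphate), then treated with antisense oligonucleotides with 15 μg/mL Lipofectin for 4 h, followed by oligonucleotide in DMEM/10% FCS. After 24-48 h, cells stained with FITC- or PE-conjugated anti-CD86 for 30 min at 4 °C and analysed by flow cytometry.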

| Substance | % mRNA INHIBITION (Mouse B7-2 mRNA) [%] | % mRNA EXPRESSION (Mouse B7-2 mRNA) [%] | further results |
| --- | --- | --- | --- |
| 18084 (antisense eG*e[5mC]*eT*eG*e[5mC]*d[5mC]*dT*dA*d[5mC]*dA*dG*dG*dA*dG*d[5mC]*e[5mC]*eA*e[5mC]*eT*e[5mC]) [compound 18084] | 63.6 | 36.4 | – |
| 18085 (antisense eT*e[5mC]*eA*eA*eG*dT*d[5mC]*d[5mC]*dG*dT*dG*d[5mC]*dT*dG*d[5mC]*e[5mC]*eT*eA*e[5mC]*eA) [compound 18085] | 65.0 | 35.0 | – |
| 18086 (antisense eG*eT*e[5mC]*eT*eA*d[5mC]*dA*dG*dG*dA*dG*dT*d[5mC]*dT*dG*eG*eT*eT*eG*eT) [compound 18086] | 59.9 | 40.1 | – |
| 18087 (antisense eA*eG*e[5mC]*eT*eT*dG*d[5mC]*dG*dT*d[5mC]*dT*d[5mC]*d[5mC]*dA*d[5mC]*eG*eG*eA*eA*eA) [compound 18087] | 57.9 | 42.1 | – |
| 18088 (antisense eT*e[5mC]*eA*e[5mC]*eA*d[5mC]*dT*dA*dT*d[5mC]*dA*dA*dG*dT*dT*eT*e[5mC]*eT*e[5mC]*eT) [compound 18088] | 47.7 | 52.3 | – |
| 18090 (antisense eG*eT*eG*eA*eA*dG*dT*d[5mC]*dG*dT*dA*dG*dA*dG*dT*e[5mC]*e[5mC]*eA*eG*eT) [compound 18090] | 63.4 | 36.6 | – |
| 18091 (antisense eG*eT*eG*eA*e[5mC]*d[5mC]*dT*dT*dG*d[5mC]*dT*dT*dA*dG*dA*e[5mC]*eG*eT*eG*e[5mC]) [compound 18091] | 62.9 | 37.1 | – |
| 18092 (antisense e[5mC]*eA*eT*e[5mC]*eT*dT*d[5mC]*dT*dT*dA*dG*dG*dT*dT*dT*e[5mC]*eG*eG*eG*eT) [compound 18092] | 41.1 | 58.9 | – |
| 18093 (antisense eG*eG*e[5mC]*eT*eG*dT*dT*dG*dG*dA*dG*dA*dT*dA*d[5mC]*eT*eG*eA*eA*e[5mC]) [compound 18093] | 67.3 | 32.7 | – |
| 18094 (antisense eG*eG*eG*eA*eA*dT*dG*dA*dA*dA*dG*dA*dG*dA*dG*eA*eG*eG*e[5mC]*eT) [compound 18094] | 36.2 | 63.8 | – |
| 18095 (antisense eA*e[5mC]*eA*eT*eA*d[5mC]*dA*dA*dT*dG*dA*dT*dG*dA*dG*e[5mC]*eA*eG*e[5mC]*eA) [compound 18095] | 65.7 | 34.3 | – |
| 18096 (antisense eG*eT*e[5mC]*eT*e[5mC]*dT*d[5mC]*dT*dG*dT*d[5mC]*dA*dG*d[5mC]*dG*eT*eT*eA*e[5mC]*eT) [compound 18096] | 67.7 | 32.3 | – |
| 18098 (antisense eG*eG*eA*eT*eT*dG*d[5mC]*d[5mC]*dA*dA*dG*d[5mC]*d[5mC]*d[5mC]*dA*eT*eG*eG*eT*eG) [compound 18098] | 67.8 | 32.2 | – |
| 18099 (antisense eG*e[5mC]*eA*eA*eT*dT*dT*dG*dG*dG*dG*dT*dT*d[5mC]*dA*eA*eG*eT*eT*e[5mC]) [compound 18099] | 33.2 | 66.8 | – |
| 18100 (antisense e[5mC]*eA*eA*eT*e[5mC]*dA*dG*d[5mC]*dT*dG*dA*dG*dA*dA*d[5mC]*eA*eT*eT*eT*eT) [compound 18100] | 32.8 | 67.2 | – |
| 18101 (antisense eT*eT*eT*eT*eG*dT*dA*dT*dA*dA*dA*dA*d[5mC]*dA*dA*eT*e[5mC]*eA*eT*eA) [compound 18101] | 11.1 | 88.9 | – |
| 18102 (antisense e[5mC]*e[5mC]*eT*eT*e[5mC]*dA*d[5mC]*dT*d[5mC]*dT*dG*d[5mC]*dA*dT*dT*eT*eG*eG*eT*eT) [compound 18102] | 66.2 | 33.8 | – |
| 18103 (antisense eT*eG*e[5mC]*eA*eT*dG*dT*dT*dA*dT*d[5mC]*dA*d[5mC]*d[5mC]*dA*eT*eA*e[5mC]*eT*e[5mC]) [compound 18103] | 69.8 | 30.2 | – |
| 18104 (antisense eA*eG*eA*eG*eA*dA*dA*d[5mC]*dT*dA*dG*dT*dA*dA*dG*eA*eG*eT*e[5mC]*eT) [compound 18104] | – | – | % mRNA EXPRESSION (Mouse B7-1 mRNA): 60.0%; % mRNA INHIBITION (Mouse B7-1 mRNA): 40.0% |
| 18105 (antisense eT*eG*eG*e[5mC]*eA*dT*d[5mC]*d[5mC]*dA*d[5mC]*d[5mC]*d[5mC]*dG*dG*d[5mC]*eA*eG*eA*eT*eG) [compound 18105] | – | – | % mRNA EXPRESSION (Mouse B7-1 mRNA): 32.0%; % mRNA INHIBITION (Mouse B7-1 mRNA): 68.0% |
| 18106 (antisense TCGAGAAACAGAGATGTAGA; listed as DNA, chemistry not fully specified) [compound 18106] | – | – | % mRNA EXPRESSION (Mouse B7-1 mRNA): 51.0%; % mRNA INHIBITION (Mouse B7-1 mRNA): 49.0% |
| 18107 (antisense eT*eG*eG*eA*eG*d[5mC]*dT*dT*dA*dG*dG*d[5mC]*dA*d[5mC]*d[5mC]*eT*e[5mC]*e[5mC]*eT*eA) [compound 18107] | – | – | % mRNA EXPRESSION (Mouse B7-1 mRNA): 58.0%; % mRNA INHIBITION (Mouse B7-1 mRNA): 42.0% |
| 18108 (antisense eT*eG*eG*eG*eG*dA*dA*dA*dG*d[5mC]*d[5mC]*dA*dG*dG*dA*eA*eT*e[5mC]*eT*eA) [compound 18108] | – | – | % mRNA EXPRESSION (Mouse B7-1 mRNA): 82.0%; % mRNA INHIBITION (Mouse B7-1 mRNA): 18.0% |
| 18109 (antisense e[5mC]*eA*eG*e[5mC]*eA*d[5mC]*dA*dA*dA*dG*dA*dG*dA*dA*dG*eA*eA*eT*eG*eA) [compound 18109] | – | – | % mRNA EXPRESSION (Mouse B7-1 mRNA): 45.5%; % mRNA INHIBITION (Mouse B7-1 mRNA): 54.5% |
| 18111 (antisense eA*eA*eG*eT*e[5mC]*d[5mC]*dG*dG*dT*dT*d[5mC]*dT*dT*dA*dT*eA*e[5mC]*eT*e[5mC]*eG) [compound 18111] | – | – | % mRNA EXPRESSION (Mouse B7-1 mRNA): 38.0%; % mRNA INHIBITION (Mouse B7-1 mRNA): 62.0% |
| 22338 (antisense eG*e[5mC]*e[5mC]*eT*e[5mC]*dA*dT*dG*dA*dT*d[5mC]*d[5mC]*d[5mC]*d[5mC]*dA*e[5mC]*eG*eA*eT*e[5mC]) [compound 22338] | – | – | % mRNA EXPRESSION (Human B7-1 mRNA; 10 nM, COS-7, Table 8): 68%; % mRNA INHIBITION (Human B7-1 mRNA; 10 nM, COS-7, Table 8): 32%; % mRNA EXPRESSION (Human B7-1 mRNA; 30 nM, COS-7, Table 8): 60%; % mRNA INHIBITION (Human B7-1 mRNA; 30 nM, COS-7, Table 8): 40%; % mRNA EXPRESSION (Human B7-1 mRNA; 100 nM, COS-7, Table 8): 53%; % mRNA INHIBITION (Human B7-1 mRNA; 100 nM, COS-7, Table 8): 47%; % mRNA EXPRESSION (Human B7-1 mRNA; 300 nM, COS-7, Table 8): 41%; % mRNA INHIBITION (Human B7-1 mRNA; 300 nM, COS-7, Table 8): 59%; % mRNA EXPRESSION (Human B7-1 mRNA; human B7-1 mRNA, Table 7): 40%; % Surface Inhibition (human B7-1; dose 10 nM): 22%; % Surface Expression (human B7-1; dose 10 nM): 78%; % Surface Inhibition (human B7-1; dose 30 nM): 35%; % Surface Expression (human B7-1; dose 30 nM): 65%; % Surface Inhibition (human B7-1; dose 100 nM): 50%; % Surface Expression (human B7-1; dose 100 nM): 50%; % Surface Inhibition (human B7-1; dose 300 nM): 60%; % Surface Expression (human B7-1; dose 300 nM): 40%; % B7-1 EXPRESSION (human B7-1; human B7 cell surface expression, Table 16): 22%; % B7-2 EXPRESSION (human B7-2): 96% |
